Measurements published in patent publication US20020161002A1, “Use of catecholamine reuptake inhibitors to enhance memory” (priority 2001, published 2002).

Tests used:
IA memory in the rat = experiment: Inhibitory Avoidance (IA) task, normal rats; format: in vivo; details: for performance on the IA task, normal rats: one hour before, p<0.05 relative to all other groups; for long-term retention of the IA task: second retention test one week after the first, no additional training or drug
Description: An exemplary passive avoidance test utilizes an apparatus that consists of a lit chamber that can be separated from a dark chamber by a sliding door. At training, the animal is placed in the lit chamber for some period of time, and the door is opened. The animal moves to the dark chamber after a short delay—the latency—that is recorded. Upon entry into the dark chamber, the door is shut closed and a foot shock is delivered.
The Inhibitory Avoidance (IA) task is a well-studied behavioral paradigm which can provide the researcher with a consistent and long-lasting measure of memory. The paradigm consists of one training trial and one retention trial. Test articles may be administered to the rats either before or after training. […] The objective of the following experiments was to investigate the effects of methylphenidate on IA memory in the rat.

rats = experiment: Activity level tests (10 minute session); details: 0.5 mg/kg; 10 minute period one hour after injection; FIGS. 16-21
fornix lesion rats = experiment: Inhibitory Avoidance (IA) task, rats with lesions of the fornix (amnesic rats); format: in vivo, rat; details: one hour before; for performance of treated fornix animals compared with normal, saline injected animals: Student-Newman-Keuls post hoc test
Description: Animal models for studying fornix-mediated memory consolidation have previously been described. See, for example, Taubenfield et al., Supra. The fornix-lesioned animals can be used for drug screening, e.g., to identify dosages of the subject reuptake inhibitors which enhance memory consolidation. The lesioned mammal can have a lesion of the fornix or a related brain structure that disrupts memory consolidation (e.g., perirhinal cortex, amygdala, medial septal nucleus, locus coeruleus, hippocampus, mammallary bodies). Lesions in the mammal can be produced by mechanical or chemical disruption. For example, the fornix lesion can be caused by surgical ablation, electrolytic, neurotoxic and other chemical ablation techniques, or reversible inactivation such as by injection of an anesthetic, e.g., tetrodotoxin or lidocaine, to temporarily arrest activity in the fornix.
In one embodiment, the animal can be a rat. Briefly, the animals are anesthetized, e.g., with intraperitoneal injections of a ketamine-xylazine mixture and positioned in a Kopf stereotaxic instrument. A sagittal incision is made in the scalp and a craniotomy is performed extending 2.0 mm posterior and 3.0 mm lateral from Bregma. An aspirative device, e.g., with a 20 gauge tip, is mounted to a stereotaxic frame (Kopf Instruments) and fimbria-fornix is aspirated by placing the suction tip at the correct sterotaxic location in the animals brain. Unilateral aspirative lesions are made by suction through the cingulate cortex, completely transecting the fimbria fornix unilaterally, and (optionally) removing the dorsal tip of the hippocampus as well as the overlying cingulate cortex to inflict a partial denervation on the hippocampus target. See also, Gage et al., (1983) Brain Res. 268:27 and Gage et al. (1986) Neuroscience 19:241.
The Inhibitory Avoidance (IA) task is a well-studied behavioral paradigm which can provide the researcher with a consistent and long-lasting measure of memory. The paradigm consists of one training trial and one retention trial. Test articles may be administered to the rats either before or after training. Improved memory, as a result of test compound administration, is evident as increased latency on the retention trial. The objective of the following experiments was to investigate the effects of methylphenidate on IA memory in the rat.
In the next experiment, we investigated whether the performance of amnesic rats could be improved by administration of methylphenidate. In this experiment, control rats and rats with lesions of the fornix received injections of either saline or methylphenidate (5 mg/kg), and one hour later, were tested on the IA task.
In the next experiment, we investigated whether the performance of amnesic rats could be improved by administration of amphetamine. […]

Compound: C[C@@H](N)Cc1ccccc1 [R-(−)amphetamine]
- retention of the IA task (second, verifying experiment) (IA memory in the rat; 0.5 mg/kg one hour prior to training, 24 hour retention interval, 0.46 mA shock, unpaired t-test p<0.002, FIG. 15): significantly improved retention of the task
- dose required for improved retention of the IA task, compared with S-(+)amphetamine (IA memory in the rat; 0.5, 1.0, 2.0 or 4.0 mg/kg one hour prior to training, 24 hour retention interval, 0.46 mA shock, FIG. 14): a much lower dose of R-(−)amphetamine is required for the same improved retention effect
- retention of the IA task at doses above 0.5 mg/kg (IA memory in the rat; 1.0, 2.0 or 4.0 mg/kg versus 0.5 mg/kg, one hour prior to training, 24 hour retention interval, FIG. 14): did not further improve the retention results
- activity levels (distance, movements, movement time, rears, stereotyped movements, resting time) versus saline control (rats): no significant effects on the activity levels

Compound: C[C@H](N)Cc1ccccc1 [S-(+)amphetamine]
- retention of the IA task (IA memory in the rat; 2 mg/kg (200 standard units) one hour prior to training, 24 hour retention interval, 0.46 mA shock, FIG. 9): improved retention of the task
- retention of the IA task (IA memory in the rat; 25 standard units/kg, injected thirty minutes prior to training, FIG. 4): no effect
- retention of the IA task (IA memory in the rat; 50 standard units/kg, injected thirty minutes prior to training, FIG. 4): no effect
- retention of the IA task (IA memory in the rat; 100 standard units/kg, injected thirty minutes prior to training, FIG. 4): no effect
- retention of the IA task (IA memory in the rat; 200 standard units, injected thirty minutes prior to training, FIG. 4): improved retention of the task
- performance on the IA task, normal rats (IA memory in the rat; 200 standard units/kg, FIG. 8): dramatically enhanced the performance of normal rats
- retention of the IA task (second, verifying experiment) (IA memory in the rat; 200 standard units/kg, unpaired t-test p<0.01, FIG. 5): significantly improved retention of the task
- long-term retention of the IA task (IA memory in the rat; F(4,47)=3.688, p<0.01, FIG. 7): performed significantly better than rats that had received control injections of vehicle solution
- performance on the IA task, fornix lesion rats (fornix lesion rats; 200 standard units/kg, FIG. 8): appeared to improve the performance of the fornix lesion rats
- performance of treated fornix animals compared with normal, saline injected animals (fornix lesion rats; 200 standard units/kg): not significantly different from normal, saline injected animals

Compound: COC(=O)C(c1ccccc1)C1CCCCN1 (centres unmarked) [methylphenidate]
- performance on the IA task, normal rats (IA memory in the rat; 5 mg/kg, FIG. 3): dramatically enhanced the performance of normal rats
- retention of the IA task (IA memory in the rat; 50 standard units/kg, injected thirty minutes prior to training, FIG. 1): improved retention
- optimal pre-training drug administration time (IA memory in the rat; 50 standard units/kg, time of administration varied): most effective when administered to the rats one hour prior to training
- retention of the IA task (second, verifying experiment) (IA memory in the rat; 50 standard units/kg, unpaired t-test p<0.03, FIG. 2): significantly improved retention of the task
- retention of the IA task (IA memory in the rat; 100 standard units/kg, injected thirty minutes prior to training, FIG. 1): no effect
- retention of the IA task (IA memory in the rat; 150 standard units/kg, injected thirty minutes prior to training, FIG. 1): no effect
- long-term retention of the IA task (IA memory in the rat): this improvement is long lasting
- performance on the IA task, fornix lesion rats (fornix lesion rats; 5 mg/kg, FIG. 3): appeared to improve the performance of the fornix lesion rats
- performance of treated fornix animals compared with normal, saline injected animals (fornix lesion rats; 5 mg/kg): not significantly different from normal, saline injected animals
